# Source: ChEMBL document CHEMBL1201862, “PubChem BioAssay data set” (2004)
# Active and inactive are the calls of the source.
# Experiments:
# [1] = target: T1, Corticotropin-releasing factor receptor 2/Corticotropin-releasing factor-binding protein (Homo sapiens, UniProt P24387+Q13324); test: activators of CRF receptor 2 with binding protein – uHTS hits, confirmation (AID 602473); assay type: functional; conditions: read-out: EC50_Mean
# T1 sequence (Q13324 whole entry): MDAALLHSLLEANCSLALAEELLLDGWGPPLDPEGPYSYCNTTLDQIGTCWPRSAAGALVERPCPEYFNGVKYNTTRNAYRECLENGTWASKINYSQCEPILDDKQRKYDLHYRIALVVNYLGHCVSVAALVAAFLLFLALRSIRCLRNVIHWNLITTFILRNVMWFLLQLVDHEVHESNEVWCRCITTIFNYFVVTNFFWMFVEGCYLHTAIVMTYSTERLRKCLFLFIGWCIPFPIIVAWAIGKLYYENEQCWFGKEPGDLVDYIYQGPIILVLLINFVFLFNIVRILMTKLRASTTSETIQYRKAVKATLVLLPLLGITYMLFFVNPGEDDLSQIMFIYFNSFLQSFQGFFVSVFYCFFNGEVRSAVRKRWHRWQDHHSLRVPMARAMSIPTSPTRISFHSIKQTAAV
# T1 sequence (P24387 whole entry): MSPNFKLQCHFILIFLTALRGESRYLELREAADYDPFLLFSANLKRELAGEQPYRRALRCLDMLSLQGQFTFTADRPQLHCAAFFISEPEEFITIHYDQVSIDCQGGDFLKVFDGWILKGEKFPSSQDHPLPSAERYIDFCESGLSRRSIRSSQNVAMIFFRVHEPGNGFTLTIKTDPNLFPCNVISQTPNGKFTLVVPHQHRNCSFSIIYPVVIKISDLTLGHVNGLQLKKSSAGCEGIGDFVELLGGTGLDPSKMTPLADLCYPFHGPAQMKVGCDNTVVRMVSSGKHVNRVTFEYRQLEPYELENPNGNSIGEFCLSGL
# Cytochrome P450 2D6 = Cytochrome P450 2D6 (Homo sapiens, UniProt P10635);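 also: CYP2D6 member of a cytochrome P450 panel assay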
# Cytochrome P450 1A2 = target: T2, Cytochrome P450 1A2 (Homo sapiens, UniProt P05177);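 also: PubChem cytochrome P450 panel assay, CYP1A2 panel member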
# T2 sequence (P05177 whole entry): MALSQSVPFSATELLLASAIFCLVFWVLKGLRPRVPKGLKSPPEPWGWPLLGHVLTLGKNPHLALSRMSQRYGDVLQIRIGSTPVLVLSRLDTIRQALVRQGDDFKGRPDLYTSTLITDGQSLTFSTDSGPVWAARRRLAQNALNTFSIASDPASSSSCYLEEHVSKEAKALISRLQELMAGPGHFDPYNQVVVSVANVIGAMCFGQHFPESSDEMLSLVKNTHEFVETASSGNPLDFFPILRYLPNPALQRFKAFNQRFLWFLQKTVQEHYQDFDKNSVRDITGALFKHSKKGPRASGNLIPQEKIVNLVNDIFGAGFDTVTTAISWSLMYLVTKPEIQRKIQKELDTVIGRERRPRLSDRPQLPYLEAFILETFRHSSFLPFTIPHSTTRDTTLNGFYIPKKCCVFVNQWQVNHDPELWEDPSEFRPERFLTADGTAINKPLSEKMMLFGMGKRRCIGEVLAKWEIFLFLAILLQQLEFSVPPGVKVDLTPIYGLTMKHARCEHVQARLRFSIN
# [2] = Trypanosoma cruzi growth suppression in host cells – NIH3T3 host cells, beta-gal luminescence, confirmation (AID 2044); assay type: functional, cell-based;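 also: intracellular parasites grown in NIH/3T3 mouse fibroblasts as host cells; luminescent beta-galactosidase reporter signal from transgenic T. cruzi replicating inside host cells; inhibitors lower the luminescence signal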
# [3] = NIH3T3 cell viability loss – ATP luminescence, mouse fibroblasts, counter-screen, dose response (AID 2010); assay type: functional, cell-based;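 also: cells exposed to compound for about 90 hours before reading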
# Cytochrome P450 2C9 = Cytochrome P450 2C9 (Homo sapiens, UniProt P11712)
# Cytochrome P450 2C19 = Cytochrome P450 2C19 (Homo sapiens, UniProt P33261); test: Cytochrome panel assay with activity outcomes. Panel member name: p450-cyp2c19 Compounds with AC50 equal or less than 10 uM are considered active; assay type: functional
# Streptococcus = test: GAS UMAA2166 growth inhibition – luminescence, BacTiterGlo, counter-screen for streptokinase expression inhibitor project, dose response (AID 1915); assay type: functional, organism-based;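 also: potency for reduction of bacterial viability or growth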
# [4] = system: Streptococcus sp. 'group A'; test: Streptococcus pyogenes SK(-)GAS viability under kanamycin – luminescence, BacTiterGlo, confirmation, counter-screen for streptokinase expression inhibitor project, dose response (AID 1900); assay type: functional, organism-based
# Cytochrome P450 2D6, sequence (P10635 whole entry): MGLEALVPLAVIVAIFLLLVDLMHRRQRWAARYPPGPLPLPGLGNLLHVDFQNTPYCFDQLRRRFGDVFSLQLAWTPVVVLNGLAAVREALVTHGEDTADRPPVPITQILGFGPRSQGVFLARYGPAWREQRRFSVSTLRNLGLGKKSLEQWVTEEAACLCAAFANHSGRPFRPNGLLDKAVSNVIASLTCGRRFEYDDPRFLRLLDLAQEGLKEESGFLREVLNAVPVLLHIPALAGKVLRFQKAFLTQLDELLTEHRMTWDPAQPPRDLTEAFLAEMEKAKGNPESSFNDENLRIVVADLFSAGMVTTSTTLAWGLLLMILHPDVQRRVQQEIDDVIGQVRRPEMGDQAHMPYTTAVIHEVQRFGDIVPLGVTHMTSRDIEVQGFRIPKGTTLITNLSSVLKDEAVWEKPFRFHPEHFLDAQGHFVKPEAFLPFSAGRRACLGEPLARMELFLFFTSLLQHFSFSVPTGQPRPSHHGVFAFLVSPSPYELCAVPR
# Cytochrome P450 2C9, sequence (P11712 whole entry): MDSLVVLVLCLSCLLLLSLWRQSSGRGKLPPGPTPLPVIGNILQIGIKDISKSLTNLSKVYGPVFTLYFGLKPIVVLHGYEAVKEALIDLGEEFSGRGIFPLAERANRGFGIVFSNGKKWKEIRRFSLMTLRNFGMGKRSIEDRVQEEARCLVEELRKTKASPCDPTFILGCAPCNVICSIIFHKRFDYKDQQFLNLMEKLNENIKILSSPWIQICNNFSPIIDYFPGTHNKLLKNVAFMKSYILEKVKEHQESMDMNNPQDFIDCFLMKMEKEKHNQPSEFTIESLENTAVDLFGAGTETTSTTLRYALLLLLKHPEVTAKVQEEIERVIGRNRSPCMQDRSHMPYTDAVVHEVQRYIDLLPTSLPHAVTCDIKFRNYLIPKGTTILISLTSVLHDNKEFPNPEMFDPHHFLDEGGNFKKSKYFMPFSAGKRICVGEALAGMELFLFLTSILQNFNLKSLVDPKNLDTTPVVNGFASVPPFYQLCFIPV
# Cytochrome P450 2C19, sequence (P33261 whole entry): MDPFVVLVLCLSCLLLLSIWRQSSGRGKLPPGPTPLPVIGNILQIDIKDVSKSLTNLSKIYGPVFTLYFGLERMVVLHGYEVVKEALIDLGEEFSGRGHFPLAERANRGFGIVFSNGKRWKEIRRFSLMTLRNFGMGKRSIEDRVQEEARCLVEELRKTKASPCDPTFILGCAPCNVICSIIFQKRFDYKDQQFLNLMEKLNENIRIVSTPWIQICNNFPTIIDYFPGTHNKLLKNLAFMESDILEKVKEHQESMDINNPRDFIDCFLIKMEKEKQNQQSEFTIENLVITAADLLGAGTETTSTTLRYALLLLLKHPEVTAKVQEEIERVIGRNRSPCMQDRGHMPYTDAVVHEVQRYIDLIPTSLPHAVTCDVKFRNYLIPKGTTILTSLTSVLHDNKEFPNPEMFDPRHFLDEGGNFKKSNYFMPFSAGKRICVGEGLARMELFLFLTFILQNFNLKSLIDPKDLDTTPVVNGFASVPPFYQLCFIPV
structure (smiles),measurement,setting,value
C=CCN1CCC2(C)c3cc(O)ccc3CC1C2C (centres undefined),EC50,[1],> 53 µM (inactive)
Cc1ccc(C(=N)c2ccccc2Cc2cccc3ccccc23)c2ccccc12,AC50,Cytochrome P450 2D6,2.51 µM (inconclusive)
same,AC50,Cytochrome P450 1A2,1 µM (inconclusive)
c1ccc(CN2CCCC3(CCCN(Cc4nc(COc5ccccc5)no4)C3)C2)cc1 (centres undefined),EC50,[2],0.285 µM (active)
same,EC50,[3],> 60 µM (not active)
O=C(Nc1ccncc1)c1cc(S(=O)(=O)N2CCN(c3ccccc3)CC2)ccc1Cl,EC50,[2],2.56 µM (active)
same,EC50,[3],> 30 µM (not active)
O=C(CN1CCCC1)Nc1ccccc1Sc1ccccc1,EC50,[1],> 53 µM (inactive)
O=C(COc1ccc2ccccc2c1)N1CCN(CC2CC3C=CC2C3)CC1 (centres undefined),AC50,Cytochrome P450 1A2,22.4 µM (inconclusive)
O=[N+]([O-])c1cc(Oc2cccnc2)cc([N+](=O)[O-])c1,EC50,[2],0.503 µM (active)
same,EC50,[3],> 60 µM (not active)
N#Cc1ccc(CN2CCCC3(CCN(C(=O)c4cnccn4)CC3)C2)cc1,AC50,Cytochrome P450 2D6,10 µM (inconclusive)
N#CCCn1c(=O)c(-c2ccc(F)cc2)nc2cnc(Oc3cccc(Cl)c3)nc21,AC50,Cytochrome P450 1A2,0.501 µM (inconclusive)
CN(C)CCCNc1c2c(=O)n(C)c(=O)nc-2n(C)c2ccccc12,AC50,Cytochrome P450 1A2,5.01 µM (inconclusive)
C#CCOC(=O)Nc1ccc(=O)n(Cc2c(Cl)cccc2Cl)c1,AC50,Cytochrome P450 2D6,20 µM (inconclusive)
same,AC50,Cytochrome P450 1A2,12.6 µM (inconclusive)
COC(=O)[C@@]1(Cc2ccccc2)[C@H]2c3cc(C(=O)N4CCCC4)n(Cc4ccc(C(F)(F)F)nc4)c3C[C@H]2CN1C(=O)c1ccccc1,AC50,Cytochrome P450 2D6,25.1 µM (inconclusive)
COCc1c(C(=O)OCC(=O)N2c3ccccc3NC(=O)C2(C)C)oc2ccccc12,AC50,Cytochrome P450 2C9,31.6 µM (inconclusive)
same,AC50,Cytochrome P450 2C19; read-out: AC50,20 µM (inconclusive)
O=C(CSc1nc2ccccc2s1)c1sc2sc3ccccc3[n+]2c1O,AC50,Cytochrome P450 2C9,6.31 µM (inconclusive)
CC(C)c1cc(-c2cc(C(=O)NCc3ccccc3)on2)nc(NCC2CC2)n1,EC50,[1],10.2 µM (active)
COc1c(Cl)cc(-c2noc(C)c2C(=O)NCc2ccc3c(c2)OCO3)cc1Cl,EC50,[1],> 53 µM (inactive)
Cc1cc(SCC(=O)c2ccc(Br)cc2)cc(C)[o+]1,AC50,Cytochrome P450 2D6,3.16 µM (inconclusive)
same,AC50,Cytochrome P450 2C19; read-out: AC50,0.398 µM (inconclusive)
COc1ccc(C(=O)C(OC(=O)CNC(=O)c2ccco2)c2ccccc2)cc1 (centres undefined),AC50,Cytochrome P450 2D6,35.5 µM (inconclusive)
same,AC50,Cytochrome P450 1A2,31.6 µM (inconclusive)
Cc1ccnc(NC(=O)c2cc([N+](=O)[O-])cc([N+](=O)[O-])c2)c1,EC50,[2],0.193 µM (active)
same,EC50,[3],> 60 µM (not active)
CCN1C(=O)[C@@H]2[C@H]3C(=CC[C@@H]2C1=O)C1(OCCCO1)[C@H]1O[C@@H]1[C@H]3O,AC50,Cytochrome P450 2C9,5.01 µM (inconclusive)
O=C(O)/C=C/c1cn(-c2ncc(C(F)(F)F)cc2Cl)c2ccccc12,AC50,Cytochrome P450 2C9,17.8 µM (inconclusive)
same,AC50,Cytochrome P450 1A2,35.5 µM (inconclusive)
same,AC50,Cytochrome P450 2C19; read-out: AC50,14.1 µM (inconclusive)
COc1ccccc1CN1CC[C@@]2(CCCN(S(=O)(=O)c3ccccc3)C2)C1,AC50,Cytochrome P450 1A2,25.1 µM (inconclusive)
Cc1ccc(SCc2n[nH]c3c2C(C(C)C)C(C#N)=C(N)O3)cc1 (centres undefined),AC50,Cytochrome P450 2D6,0.00316 µM (inconclusive)
Cc1cccc(-n2c(SCc3ccc([N+](=O)[O-])cc3)nnc2-c2c[nH]c3ccccc23)c1,EC50,[2],1.77 µM (active)
same,EC50,[3],> 60 µM (not active)
COc1cccc(C(=O)NC2CCN(C(=O)N3c4ccccc4Sc4ccccc43)CC2)c1,EC50,[2],2.23 µM (active)
same,EC50,[3],> 60 µM (not active)
CCOC(=O)c1ccc(NC(=O)C2CCCO2)cc1 (centres undefined),AC50,Cytochrome P450 2C9,0.0251 µM (inconclusive)
same,AC50,Cytochrome P450 2C19; read-out: AC50,14.1 µM (inconclusive)
Cc1cc(C)c2nc3c(c([C@H](O)[C@@H]4CCCCN4)c2c1)CC/C3=C/c1ccc(Cl)cc1,AC50,Cytochrome P450 2C9,1 µM (inconclusive)
Cc1ccc(C(=O)NNC(=O)CSc2nnc(-c3ccncc3)n2-c2ccc(C)cc2)cc1,AC50,Cytochrome P450 2D6,12.6 µM (inconclusive)
O=S(=O)(c1ccccc1)c1cnn2c(C(F)(F)F)cc(-c3ccccc3)nc12,AC50,Cytochrome P450 2C9,0.708 µM (inconclusive)
same,AC50,Cytochrome P450 2C19; read-out: AC50,39.8 µM (inconclusive)
COc1ccc(C(=O)c2sc(Nc3cccc(OC)c3)c(C(=O)Nc3cccc(C)c3C)c2N)cc1,EC50,[1],> 53 µM (inactive)
CCCCN(C)CCCNC(=O)c1ccc2c(c1)N(CC)C(=O)c1ccccc1[S+]2[O-] (centres undefined),EC50,[2],0.238 µM (active)
same,EC50,[3],> 60 µM (not active)
Cc1cc(/C=C2\C(=N)N3N=C(S(C)(=O)=O)SC3=NC2=O)c(C)n1Cc1ccccc1,EC50,Streptococcus,21.1 µM (active)
same,EC50,[4],4.19 µM (active)
COc1ccccc1/C=C/C(=O)OCCCN(C)C,EC50,[2],0.794 µM (active)
same,EC50,[3],> 30 µM (not active)
NC(=NOC(=O)Cc1ccc(-c2ccccc2)cc1)c1cccc([N+](=O)[O-])c1,AC50,Cytochrome P450 2C9,10 µM (inconclusive)
same,AC50,Cytochrome P450 2C19; read-out: AC50,2.82 µM (inconclusive)
COc1ccc(NC(=O)OC(C)C)cc1,AC50,Cytochrome P450 2D6,35.5 µM (inconclusive)
same,AC50,Cytochrome P450 2C9,14.1 µM (inconclusive)
same,AC50,Cytochrome P450 2C19; read-out: AC50,28.2 µM (inconclusive)
Cn1cc(-c2nc3cncnc3n(-c3ccccc3)c2=O)c2ccccc21,AC50,Cytochrome P450 2C19; read-out: AC50,39.8 µM (inconclusive)
Cc1ccc2c(c1)N(CC(=O)NC1CCC(C)CC1)C(=O)CO2 (centres undefined),AC50,Cytochrome P450 2D6,14.1 µM (inconclusive)
CCn1cnc2c(Nc3cccc(Cl)c3)nc(N[C@@H]3CCCC[C@H]3N)nc21,AC50,Cytochrome P450 2C19,inconclusive
CCOC(=O)/C(=C\c1ccc([N+](=O)[O-])o1)NC(=O)c1ccccc1,EC50,[2],0.995 µM (active)
same,EC50,[3],> 60 µM (not active)
CC(OC(=O)c1ccc(S(=O)(=O)NCc2ccco2)cc1)C(=O)Nc1ccc(Cl)cn1 (centres undefined),EC50,[1],4.62 µM (active)
Oc1ccc(Oc2nc(N3CCOCC3)nc(N3CCOCC3)n2)nn1,AC50,Cytochrome P450 2C19; read-out: AC50,2.82 µM (inconclusive)
O=C(NC(=S)Nc1ccc(CN2CCCCC2)cc1)c1cccc(OCc2ccccc2)c1,EC50,[2],1.09 µM (active)
same,EC50,[3],> 60 µM (not active)
O=C(CCS(=O)(=O)c1cccs1)N1CCN(c2ccc(F)cc2)CC1,AC50,Cytochrome P450 2C9,2.51 µM (inconclusive)
same,AC50,Cytochrome P450 1A2,31.6 µM (inconclusive)
Cc1ccc(-c2ccc(=O)n(CC(=O)N3CCN(c4cccc(C)c4)C(C)C3)n2)cc1 (centres undefined),AC50,Cytochrome P450 2D6,28.2 µM (inconclusive)
same,AC50,Cytochrome P450 2C9,20 µM (inconclusive)
same,AC50,Cytochrome P450 1A2,20 µM (inconclusive)
COc1ccc(C(=O)OCC(=O)Nc2nnc(-c3ccccc3)o2)cc1,EC50,Streptococcus,19.2 µM (active)
same,EC50,[4],5.97 µM (active)
c1ccc(CCNCc2ccco2)nc1,AC50,Cytochrome P450 2D6,2.51 µM (inconclusive)
same,AC50,Cytochrome P450 1A2,6.31 µM (inconclusive)
CCOc1ccc(NS(=O)(=O)c2ccc(C(=O)N3CCCC(C)C3)cc2)cc1 (centres undefined),EC50,[1],11.1 µM (active)
CCOC(=O)c1c(-c2ccccc2)csc1NC(=O)/C(C#N)=C\c1ccc(O)c(OC)c1,EC50,[1],6.49 µM (active)
CC(=O)N1CCC(=O)N(C(C)C)c2ccccc21,AC50,Cytochrome P450 2C9,0.0282 µM (inconclusive)
CCC(=O)NC(NC(=O)CC)C(Cl)Cl,AC50,Cytochrome P450 2C9,20 µM (inconclusive)
CCOc1ccc(N2C(=O)CS/C2=N/NC(=O)COc2ccc3ccccc3c2)cc1,AC50,Cytochrome P450 2D6,39.8 µM (inconclusive)
same,AC50,Cytochrome P450 2C9,31.6 µM (inconclusive)
Cc1cccc([C@H](C)c2cnc[nH]2)c1C [DEXMEDETOMIDINE],AC50,Cytochrome P450 2D6,12.6 µM (inconclusive)
CC(=O)SC[C@@H](Cc1ccccc1)C(=O)NCC(=O)OCc1ccccc1 [ECADOTRIL],AC50,Cytochrome P450 2C9,3.98 µM (inconclusive)
O=C(O)CCC(=O)c1ccc(-c2ccccc2)cc1 [FENBUFEN],AC50,Cytochrome P450 1A2,12.6 µM (inconclusive)
C[C@H](N[C@@H](C)COc1ccccc1)[C@H](O)c1ccc(O)cc1 [ISOXSUPRINE],AC50,Cytochrome P450 2C19; read-out: AC50,15.8 µM (inconclusive)
